Numbered stars: 1 amine (or outer) side, 2 acyl side, 3 side chain; on linkers, the order of the positions; unused ones are H or OH. Bridge positions count the residues as written; N and C are the ends. Square brackets hold non-standard residues; d marks the D form. Ends that are not written are not given here. Peptide text beside a SMILES is read from it. DABHC = 2-azabicyclo[2,2,1]heptane-3-carboxylic acid, D-form (1R,3R,4S), O=C([C@H]1[C@H]2CC[C@H](C2)N1[*:1])[*:2]; X2 = O=C([C@@H]1[C@@H]2CC[C@@H](C2)N1[*:1])[*:2]; X1 = O=C([C@H]1[C@H]2CC[C@H](C2)N1[*:1])[*:2]; LABHC = not defined here
Experiments:
NR6/HER cells [1] = assay type: cell-based, mouse
Method: NR6 and NR6/HER cells (NR6 mouse fibroblasts transfected with human EGF-R expression plasmid) and HN5 squamous carcinoma cells (see Cowley, G. P. et al, Br. J. Cancer 1986, 53, 2230229) were routinely cultured in Dulbecco's Modified Eagles Medium (DMEM) containing 10% foetal bovine serum (FBS), 2 mM glutamine, non-essential amino acids, 10 U/ml penicillin and 10 μg/ml streptomycin at 37° C. in a humidified atmosphere of air containing 5% CO2. G418 (100 μg/ml) was also included in the NR6/HER growth medium as selection for EGF Receptor encoding transformants.
(§1) The ability of the Example 1 peptide to induce DNA synthesis in confluent and quiescent cells was assayed as described in Davies, D. E. et al, Br. J. Cancer 1994, 70, 263-269 but using NR6/HER or NR6 cells in place of human foreskin fibroplasts.

NR6/HER cells [2] = assay: Effect of peptide on the mitogenic response induced by TGFA; assay type: cell-based, mouse
Method: as §1

EGF Receptor = molecular target: T1, EGF Receptor (Homo sapiens, UniProt P00533); assay: EGF Receptor Tyr phosphorylation assay in HN5 cells (Western blotting); assay type: cell-based; settings: 10 minutes at room temperature
T1 construct: endogenous in cells; host or cells: HN5 squamous carcinoma cells
T1 sequence (P00533 25-1210): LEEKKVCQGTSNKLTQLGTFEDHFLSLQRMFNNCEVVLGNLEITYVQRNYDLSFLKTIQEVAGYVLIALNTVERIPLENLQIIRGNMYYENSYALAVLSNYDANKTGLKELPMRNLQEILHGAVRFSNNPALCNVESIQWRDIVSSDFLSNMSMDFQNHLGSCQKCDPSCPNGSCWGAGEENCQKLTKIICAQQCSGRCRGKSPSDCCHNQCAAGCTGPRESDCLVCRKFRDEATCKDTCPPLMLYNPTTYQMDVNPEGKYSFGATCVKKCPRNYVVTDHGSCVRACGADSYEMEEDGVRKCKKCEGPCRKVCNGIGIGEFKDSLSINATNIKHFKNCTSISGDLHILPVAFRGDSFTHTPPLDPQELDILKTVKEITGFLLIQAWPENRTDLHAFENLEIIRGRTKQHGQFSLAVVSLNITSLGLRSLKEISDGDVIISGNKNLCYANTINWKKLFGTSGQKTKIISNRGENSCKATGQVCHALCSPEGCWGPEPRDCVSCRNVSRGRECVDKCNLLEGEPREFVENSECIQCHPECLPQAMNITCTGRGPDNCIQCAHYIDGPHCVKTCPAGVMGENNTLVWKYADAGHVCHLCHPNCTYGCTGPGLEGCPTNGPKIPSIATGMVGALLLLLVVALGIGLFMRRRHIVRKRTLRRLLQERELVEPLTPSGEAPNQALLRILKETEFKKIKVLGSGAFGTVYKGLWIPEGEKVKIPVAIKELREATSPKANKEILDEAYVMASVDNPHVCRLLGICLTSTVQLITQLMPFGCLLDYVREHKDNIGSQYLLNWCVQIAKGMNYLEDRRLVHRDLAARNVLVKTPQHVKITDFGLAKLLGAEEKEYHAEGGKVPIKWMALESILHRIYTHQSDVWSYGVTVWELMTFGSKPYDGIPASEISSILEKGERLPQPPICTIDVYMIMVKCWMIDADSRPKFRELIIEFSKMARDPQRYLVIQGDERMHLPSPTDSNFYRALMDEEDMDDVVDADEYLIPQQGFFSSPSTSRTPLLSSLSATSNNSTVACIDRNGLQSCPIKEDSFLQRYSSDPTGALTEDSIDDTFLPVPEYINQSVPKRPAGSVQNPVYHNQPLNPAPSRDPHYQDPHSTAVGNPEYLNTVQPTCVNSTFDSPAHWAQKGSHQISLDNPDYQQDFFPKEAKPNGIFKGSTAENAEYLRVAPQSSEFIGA
Method: EGF Receptor Tyr phosphorylation assays were performed using HN5 cells at approximately 50% confluence in 96-well plates. Cells were plated in 10% FBS/DMEM and allowed to adhere overnight. Medium was removed and wells washed twice with DMEM. The peptide was diluted in DMEM and added in 50 μl volume and cells incubated for 10 minutes at room temperature. At the end of incubation, reagents were removed and the cells washed once with 50 μl/well buffered saline and then rapidly solubilised with 50 μl/well×1 sample buffer containing phosphatase and protease inhibitors (1 mM NaF, 1 mM Na3 VO4, 100 μM PMSF). Enhanced phosphorylation of the 170 kDa EGF-R was determined by Western Blotting after SDS polyacrylamide gel electrophoresis as in Holt, S. J. et al, Biochem. Pharmacol. 1994, 47, 117-126.

NR6 cells = assay: Mitogenic activity on parental NR6 cell line which lacks EGF-R; assay type: cell-based, mouse; settings: doses maximally stimulating for NR6/HER cells; FIG. 3
[3] = molecular target: human EGF Receptor on NR6/HER cells (NR6 mouse fibroblasts transfected with human EGF-R expression plasmid) (human, UniProt P00533); assay: cell-based or functional assay

## CC(C)C[C@@H]1NC(=O)[C@H](Cc2ccccc2)NC(=O)[C@H](CCCNC(=N)N)NC(=O)[C@@H](NC(=O)[C@@H](N)Cc2ccccc2)CSSC[C@@H](C(=O)O)NC(=O)[C@H](C)NC(=O)[C@H]2[C@H]3CC[C@H](C3)N2C(=O)[C@H](CCCCN)NC(=O)[C@H](CC(=O)O)NC(=O)[C@H](CCC(=O)O)NC(=O)[C@H](CCC(N)=O)NC(=O)[C@H](C(C)C)NC1=O [Example 1 peptide] (H-FCRFLVQEDK[X1]AC-OH; disulfide 2-13)
NR6/HER cells [1]
  EC50: 130 µM

## CC(C)C[C@@H]1NC(=O)[C@H](Cc2ccccc2)NC(=O)[C@H](CCCNC(=N)N)NC(=O)[C@@H](NC(=O)[C@@H](N)Cc2ccccc2)CSSC[C@@H](C(=O)O)NC(=O)[C@H](C)NC(=O)[C@@H]2[C@@H]3CC[C@@H](C3)N2C(=O)[C@H](CCCCN)NC(=O)[C@H](CC(=O)O)NC(=O)[C@H](CCC(=O)O)NC(=O)[C@H](CCC(N)=O)NC(=O)[C@H](C(C)C)NC1=O [peptide incorporating LABHC] (H-FCRFLVQEDK[X2]AC-OH; disulfide 2-13; N-terminus assumed)
NR6/HER cells [1]
  EC50: 330 µM
NR6/HER cells [2]; maximal doses of TGFA, FIG. 2(b)
  effect on mitogenic response at maximal doses of TGFA: Similar, but less pronounced
NR6/HER cells [2]; suboptimal doses of TGFA, FIG. 2(a)
  effect on mitogenic response at suboptimal doses of TGFA: Similar, but less pronounced
EGF Receptor
  EGF Receptor phosphorylation: Neither the Example 1 peptide nor the corresponding peptide incorporating LABHC appeared to lead to increased EGF Receptor phosphorylation

## PDGF
NR6 cells
  mitogenic response of NR6 cells (EGF-R negative): responsiveness of the cells to a mitogenic stimulus was confirmed

## FCRFLVQEDK[DABHC]AC (disulfide 2-13)
[3]
  DNA synthesis (mitogenic activity), EC50: 130 µM

## FCRFLVQEDK[LABHC]AC (disulfide 2-13; reading uncertain)
[3]
  DNA synthesis (mitogenic activity), EC50: 330 µM

Reference: patent US5969099A, “Growth factor analogs” (The Secretary of State for Defence, priority 1995, dated 1999)
